From patent US20100105694A1, “SUBSTITUTED PYRAZINONE DERIVATIVES FOR USE AS A MEDICINE” (priority 2006, published 2010)
Read-outs that look alike come from different tables or passages of the source.

How the values were obtained:
[1] = target: T1, human adrenergic-α2C receptor (Homo sapiens, UniProt P18825); assay: Radioligand binding experiment for α2C-adrenoceptor ([3H]raulwolscine, CHO cell membranes)
T1 construct: expressed in transfected cells; host or cells: CHO cells, stably transfected; membranes
T1 sequence (P18825 1-462): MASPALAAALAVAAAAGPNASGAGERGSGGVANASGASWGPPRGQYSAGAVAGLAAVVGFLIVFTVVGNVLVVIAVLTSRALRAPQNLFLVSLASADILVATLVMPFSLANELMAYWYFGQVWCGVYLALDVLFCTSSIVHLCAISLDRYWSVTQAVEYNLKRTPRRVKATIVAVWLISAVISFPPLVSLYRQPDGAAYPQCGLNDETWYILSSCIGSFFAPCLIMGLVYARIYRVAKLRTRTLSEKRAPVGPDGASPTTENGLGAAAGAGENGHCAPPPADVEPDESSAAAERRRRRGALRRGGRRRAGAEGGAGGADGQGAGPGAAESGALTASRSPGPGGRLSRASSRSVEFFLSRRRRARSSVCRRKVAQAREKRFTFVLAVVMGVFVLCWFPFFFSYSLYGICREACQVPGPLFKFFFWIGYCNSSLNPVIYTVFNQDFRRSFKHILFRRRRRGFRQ
Experimental: (§1) The interaction of a compound of Formula (I) with α2C-adrenoceptor receptors was assessed in in vitro radioligand binding experiments. In general, a low concentration of a radioligand with a high binding affinity for a particular receptor or transporter is incubated with a sample of a tissue preparation enriched in a particular receptor or transporter or with a preparation of cells expressing cloned human receptors in a buffered medium. During the incubation, the radioligand binds to the receptor or transporter. When equilibrium of binding is reached, the receptor bound radioactivity is separated from the non-bound radioactivity, and the receptor- or transporter-bound activity is counted. The interaction of the test compounds with the receptor is assessed in competition binding experiments. Various concentrations of the test compound are added to the incubation mixture containing the receptor- or transporter preparation and the radioligand. The test compound in proportion to its binding affinity and its concentration inhibits binding of the radioligand. The radioligand used for hα2A and hα2C receptor binding was [^3H]-raulwolscine.
(§2) CHO cells, stabile transfected with human adrenergic-α2A and α2C receptor cDNA, were cultured in Dulbecco's Modified Eagle's Medium (DMEM)/Nutrient mixture Ham's F12 (ratio 1:1) (Gibco, Gent-Belgium) supplemented with 10% heat inactivated fetal calf serum (Life Technologies, Merelbeke-Belgium) and antibiotics (100 IU/ml penicillin G, 100 μg/ml streptomycin sulphate, 110 μg/ml pyruvic acid and 100 μg/ml L-glutamine). One day before collection, cells were induced with 5 mM sodiumbutyrate. Upon 80-90% of confluence, cells were scraped in phosphate buffered saline without Ca^2+ and Mg^2+ and collected by centrifugation at 1500×g for 10 minutes. The cells were homogenised in Tris-HCl 50 mM using an Ultraturrax homogenizer and centrifuged for 10 minutes at 23,500×g. The pellet was washed once by resuspension and rehomogenization and the final pellet was resuspended in Tris-HCl, divided in 1 ml aliquots and stored at −70° C.
(§3) Membranes were thawed and re-homogenized in incubation buffer (glycylglycine 25 mM, pH 8.0). […] Filters were rinsed extensively with ice-cold rinsing buffer (Tris-HCl 50 mM pH 7.4). Filter-bound radioactivity was determined by scintillation counting in a Topcount (Packard, Meriden, Conn.) and results were expressed as counts per minute (cpm). Non-specific binding was determined in the presence of 1 μM oxymetazoline for the hα2A receptor and 1 μM spiroxatrine for hα2C receptors.
(§4) Data from assays in the presence of compound were calculated as a percentage of total binding measured in the absence of test compound. Inhibition curves, plotting percent of total binding versus the log value of the concentration of the test compound, were automatically generated, and sigmoidal inhibition curves were fitted using non-linear regression. The pIC50 values of test compounds were derived from individual curves.

[2] = target: T2, human adrenergic-α2A receptor (Homo sapiens, UniProt P08913); assay: Radioligand binding experiment for hα2A receptor ([3H]raulwolscine, CHO cell membranes)
T2 construct: expressed in transfected cells; host or cells: CHO cells, stably transfected; membranes
T2 sequence (P08913 1-465): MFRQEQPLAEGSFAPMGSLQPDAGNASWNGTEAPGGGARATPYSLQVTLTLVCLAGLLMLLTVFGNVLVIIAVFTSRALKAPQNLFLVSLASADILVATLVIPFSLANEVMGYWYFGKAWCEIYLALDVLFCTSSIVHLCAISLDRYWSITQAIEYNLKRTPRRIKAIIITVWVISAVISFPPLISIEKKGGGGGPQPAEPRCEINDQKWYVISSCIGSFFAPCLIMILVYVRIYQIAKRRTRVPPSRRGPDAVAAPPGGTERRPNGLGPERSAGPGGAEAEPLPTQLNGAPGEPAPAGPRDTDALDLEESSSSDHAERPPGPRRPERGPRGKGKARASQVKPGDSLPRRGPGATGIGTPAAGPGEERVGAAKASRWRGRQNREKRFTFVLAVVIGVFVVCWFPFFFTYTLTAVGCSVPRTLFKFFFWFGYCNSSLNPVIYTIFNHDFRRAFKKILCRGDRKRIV
Experimental: as §1, §2, §3, §4

5HT-Transporter = target: T3, 5HT-Transporter (Homo sapiens, UniProt P31645); assay: Binding experiment for the 5HT-transporter ([3H]paroxetine, human platelet membranes)
T3 construct: Human platelet membranes (Oceanix Biosciences Corporation, Hanover, Md., USA) were thawed; tissue Oceanix Biosciences Corporation; host or cells: human platelet membranes
Experimental: as §1
Human platelet membranes (Oceanix Biosciences Corporation, Hanover, Md., USA) were thawed, diluted in buffer (Tris-HCl 50 mM, 120 mM NaCl and 5 mM KCl) and quickly (max 3 s) homogenised with an Ultraturrax homogenizer. […] Incubation was stopped by rapid filtration of the incubation mixture over GF/B filters, pre-wetted with 0.1% polyethyleneamine, using a Filtermate196 harvester (Packard, Meriden, Conn.). Filters were rinsed extensively with ice-cold buffer and radioactivity on the filters was counted in a Topcount liquid scintillation counter (Packard, Meriden, Conn.). Data were expressed as cpm. Imipramine (at 1 μM final concentration) was used to determine the non-specific binding.
as §4

[3] = [3H]raulwolscine 1 nM, membranes of CHO cells transfected with human α2C receptor, read-out: h-α2C pIC50 (converted)
[4] = [3H]raulwolscine 1 nM, membranes of CHO cells transfected with human α2A receptor, read-out: h-α2A pIC50 (converted)
[5] = [3H]paroxetine 0.5 nM, read-out: h-5HTT pIC50 (converted)
[6] = h-5HTT pIC50, [3H]paroxetine 0.5 nM

T3 sequence (P31645 whole entry): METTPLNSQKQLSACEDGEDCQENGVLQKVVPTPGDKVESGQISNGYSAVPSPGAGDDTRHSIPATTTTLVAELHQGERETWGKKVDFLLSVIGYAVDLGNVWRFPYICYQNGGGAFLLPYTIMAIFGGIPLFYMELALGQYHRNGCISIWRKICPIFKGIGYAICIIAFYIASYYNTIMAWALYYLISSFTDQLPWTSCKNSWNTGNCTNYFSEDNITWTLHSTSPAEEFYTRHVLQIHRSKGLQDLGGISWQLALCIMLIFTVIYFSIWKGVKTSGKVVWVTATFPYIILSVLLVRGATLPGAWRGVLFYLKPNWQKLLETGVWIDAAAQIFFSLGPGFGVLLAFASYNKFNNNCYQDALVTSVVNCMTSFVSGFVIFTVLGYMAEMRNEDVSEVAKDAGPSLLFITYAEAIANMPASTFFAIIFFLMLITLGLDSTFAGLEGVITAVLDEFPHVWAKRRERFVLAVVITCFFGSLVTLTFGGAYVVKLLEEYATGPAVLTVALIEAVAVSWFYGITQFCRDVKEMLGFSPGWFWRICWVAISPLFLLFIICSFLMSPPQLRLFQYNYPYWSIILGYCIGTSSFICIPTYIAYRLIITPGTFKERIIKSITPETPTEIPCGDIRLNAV

| Structure (SMILES) | IC50 [1, 3] | IC50 [2, 4] | IC50 (5HT-Transporter; [5]) | IC50 [1] | IC50 [2] | IC50 (5HT-Transporter; [6]) |
| --- | --- | --- | --- | --- | --- | --- |
| O=c1c(NC2CCN(Cc3ccc(-c4ccccc4)cc3)CC2)nccn1Cc1ccncc1 [Compound 1-10] | 794 nM | 3160 nM | > 10000 nM |  |  |  |
| O=c1c(NC2CCN(Cc3ccc(-c4ccccc4)cc3)CC2)nccn1Cc1ccc2ccccc2n1 [Compound 1-11] | 794 nM | 631 nM | 501 nM |  |  |  |
| CC(C)(C)OC(=O)NCCCn1ccnc(N2CCN(Cc3ccc(-c4ccccc4)cc3)CC2)c1=O [Compound 2-1] | 631 nM | 1260 nM | 1580 nM |  |  |  |
| O=C1c2ccccc2C(=O)N1CCCn1ccnc(N2CCN(Cc3ccc(-c4ccccc4)cc3)CC2)c1=O [Compound 2-2] | 316 nM | 1000 nM | 200 nM |  |  |  |
| NCc1ccc(Cn2ccnc(N3CCN(Cc4cccc(-c5ccccc5)c4)CC3)c2=O)cc1 [Compound 3-1] | 631 nM | 79.4 nM | 5010 nM |  |  |  |
| CC(C)(C)OC(=O)NCc1ccc(Cn2ccnc(N3CCN(Cc4cccc(-c5ccccc5)c4)CC3)c2=O)cc1 [Compound 3-2] | 251 nM | 200 nM | 6310 nM |  |  |  |
| O=c1[nH]ccnc1N1CCN(Cc2cccc(-c3ccccc3)c2)CC1 [Compound 3-3] | 316 nM | 316 nM | > 10000 nM |  |  |  |
| O=c1c(N2CCN(Cc3cccc(-c4ccccc4)c3)CC2)nccn1CC=Cc1ccccc1 [Compound 3-6] | 794 nM | 794 nM | 5010 nM |  |  |  |
| O=C1c2ccccc2C(=O)N1CCCn1ccnc(N2CCN(Cc3cccc(-c4ccccc4)c3)CC2)c1=O [Compound 3-9] | 794 nM | 1580 nM | 794 nM |  |  |  |
| O=c1c(N2CCC(c3ccccc3)CC2)nccn1Cc1ccc2ccccc2c1 [Compound 4-1] | 501 nM | 501 nM | 3980 nM |  |  |  |
| NCc1ccc(Cn2ccnc(N3CCC(c4ccccc4)CC3)c2=O)cc1 [Compound 4-2] | 794 nM | 501 nM | > 10000 nM |  |  |  |
| CC(C)(C)OC(=O)NCc1ccc(Cn2ccnc(N3CCC(c4ccccc4)CC3)c2=O)cc1 [Compound 4-3] | 631 nM | 200 nM | > 10000 nM |  |  |  |
| NCc1ccc(Cn2ccnc(NC3CCN(Cc4ccccc4)CC3)c2=O)cc1 [Compound 5-2] | 631 nM | 1000 nM | > 10000 nM |  |  |  |
| O=C1c2ccccc2C(=O)N1CCCn1ccnc(NC2CCN(Cc3ccccc3)CC2)c1=O [Compound 5-5] | 398 nM | 5010 nM | 3980 nM |  |  |  |
| NCc1ccc(Cn2ccnc(NC3CCN(CCc4ccccc4)CC3)c2=O)cc1 [Compound 6-3] | 398 nM | 1260 nM | > 10000 nM |  |  |  |
| CC(C)(C)OC(=O)NCCCn1ccnc(NC2CCN(CCc3ccccc3)CC2)c1=O [Compound 6-4] | 631 nM | 3160 nM | > 10000 nM |  |  |  |
| O=c1c(NC2CCN(CCc3ccccc3)CC2)nccn1CCN1CCCCC1 [Compound 6-5] | 316 nM | 1580 nM | > 10000 nM |  |  |  |
| O=C1c2ccccc2C(=O)N1CCCn1ccnc(NC2CCN(CCc3ccccc3)CC2)c1=O [Compound 6-6] | 158 nM | 3980 nM | 1580 nM |  |  |  |
| O=c1c(NC2CCN(CCc3ccccc3)CC2)nccn1Cc1ccccc1Br [Compound 6-7] | 398 nM | 794 nM | 5010 nM |  |  |  |
| O=c1c(NC2CCN(CCc3ccccc3)CC2)nccn1Cc1cccc(Br)c1 [Compound 6-8] |  |  |  | 398 nM | 1000 nM | 5010 nM |
| O=c1c(NC2CCN(CCc3ccccc3)CC2)nccn1Cc1ccc(Br)cc1 [Compound 6-9] | 316 nM | 1260 nM | 6310 nM |  |  |  |
| NCc1ccc(Cn2ccnc(NC3CCN(CCCc4ccccc4)CC3)c2=O)cc1 [Compound 7-1] | 100 nM | 316 nM | 794 nM |  |  |  |
| CC(C)(C)OC(=O)NCCCn1ccnc(NC2CCN(CCCc3ccccc3)CC2)c1=O [Compound 7-2] | 79.4 nM | 794 nM | 3160 nM |  |  |  |
| CC(C)(C)OC(=O)NCc1ccc(Cn2ccnc(NC3CCN(CCCc4ccccc4)CC3)c2=O)cc1 [Compound 7-3] | 398 nM | 1580 nM | 1580 nM |  |  |  |
| O=c1c(NC2CCN(CCCc3ccccc3)CC2)nccn1CCN1CCCCC1 [Compound 7-4] | 126 nM | 1580 nM | > 10000 nM |  |  |  |
| O=C1c2ccccc2C(=O)N1CCCn1ccnc(NC2CCN(CCCc3ccccc3)CC2)c1=O [Compound 7-5] |  |  |  | 20 nM | 501 nM | 1000 nM |
| COC(=O)Cn1ccnc(NC2CCN(CCCc3ccccc3)CC2)c1=O [Compound 7-6] | 794 nM | 3980 nM | > 10000 nM |  |  |  |
| O=c1[nH]ccnc1NC1CCN(CCCc2ccccc2)CC1 [Compound 7-7] |  |  |  | 794 nM | 1580 nM | > 10000 nM |
